Assay results reported in patent EP0004590A1, “Penicillin and cephalosporin derivatives, processes for their preparation and their applications” (BAYER AG, priority 1978, dated 1979).

Columns and labels:
E. coli Neumann = experiment: Minimum inhibitory concentration (MHK); format: cell-based
Serratia 16 001 = experiment: Minimum inhibitory concentration (MHK); format: cell-based
Provid. 12012 = experiment: Minimum inhibitory concentration (MHK); format: cell-based
Klebsiella 6097 = experiment: Minimum inhibitory concentration (MHK); format: cell-based
Proteus rettg. = experiment: Minimum inhibitory concentration (MHK); format: cell-based
Prot. vulg. 9023 = experiment: Minimum inhibitory concentration (MHK); format: cell-based
E. coli C 165 = experiment: Minimum inhibitory concentration (MHK); format: cell-based
E.coli 183/58 = experiment: Minimum inhibitory concentration (MHK); format: cell-based
Escherichia coli Neumann = experiment: Animal test with the white mouse, intraperitoneal infection, ED50 after 24 hours; format: in vivo, weiße Maus; conditions: sc; white mice strain CF1 infected intraperitoneally with Escherichia coli Neumann; subcutaneous; therapy 30 and 90 minutes after infection; dose at which 50 % of infected animals survive after 24 hours; read-out: ED50 nach 24 Stunden
From the text: Aus der folgenden Tabelle 1 geht die Wirkung einer der erfindungsgemäßen Verbindungen gegen eine Reihe von Bakterien im Tierversuch mit der weißen Maus hervor. Die weißen Mäuse vom Stamm CF1 wurden intraperitoneal mit der jeweils angegebenen Bakterienart infiziert.
Therapie: zweimalig : 30 und 90 Minuten nach der Infektion. Die ED50 ist die Dosis, bei der 50 % der infizierten Tiere nach 24 Stunden nocht überleben.

Klebs. 63 = experiment: Minimum inhibitory concentration (MHK); format: cell-based
Psdm. F 41 = experiment: Minimum inhibitory concentration (MHK); format: cell-based
E. coli 4322 = experiment: Minimum inhibitory concentration (MHK); format: cell-based

CN1C(=O)CCN(C(=O)N[C@@H](C(=O)N[C@@H]2C(=O)N3[C@@H]2SC(C)(C)[C@@H]3C(=O)O)c2ccccc2)C1=O [Beispiel 1]
Wirksamkeit (MHK in E/ml) (E. coli Neumann): 4 E/ml

CN1C(=O)CCN(C(=O)N[C@@H](C(=O)N[C@@H]2C(=O)N3[C@@H]2SC(C)(C)[C@@H]3C(=O)O)c2ccc(O)cc2)C1=O [Beispiel 2]
Wirksamkeit (MHK in E/ml) (Serratia 16 001): 16 E/ml

CC(=O)OCC1=C(C(=O)O)N2C(=O)[C@@H](NC(=O)[C@H](NC(=O)N3CCC(=O)N(C)C3=O)c3ccccc3)[C@H]2SC1 [Beispiel 3]
Wirksamkeit (MHK in E/ml) (E. coli Neumann): 8-16 E/ml

CCN1C(=O)CCN(C(=O)N[C@@H](C(=O)N[C@@H]2C(=O)N3[C@@H]2SC(C)(C)[C@@H]3C(=O)O)c2ccccc2)C1=O [Beispiel 4]
Wirksamkeit (MHK in E/ml) (Provid. 12012): 16 E/ml | Wirksamkeit (MHK in E/ml) (E. coli Neumann): 4 E/ml | Wirksamkeit (MHK in E/ml) (Klebsiella 6097): 16 E/ml | Wirksamkeit (MHK in E/ml) (Proteus rettg.): 16 E/ml

CCN1C(=O)CCN(C(=O)N[C@@H](C(=O)N[C@@H]2C(=O)N3[C@@H]2SC(C)(C)[C@@H]3C(=O)O)c2ccc(O)cc2)C1=O [Beispiel 5]
Wirksamkeit (MHK in E/ml) (Prot. vulg. 9023): 16 E/ml | Wirksamkeit (MHK in E/ml) (E. coli C 165): 16 E/ml

CCCN1C(=O)CCN(C(=O)N[C@@H](C(=O)N[C@@H]2C(=O)N3[C@@H]2SC(C)(C)[C@@H]3C(=O)O)c2ccccc2)C1=O [Beispiel 6]
Wirksamkeit (MHK in E/ml) (Klebsiella 6097): 16 E/ml | Wirksamkeit (MHK in E/ml) (E.coli 183/58): 4 E/ml

CCCN1C(=O)CCN(C(=O)N[C@@H](C(=O)N[C@@H]2C(=O)N3C(C(=O)O)=C(COC(C)=O)CS[C@H]23)c2ccccc2)C1=O [Beispiel 8]
Wirksamkeit (MHK in E/ml) (E. coli Neumann): 4 E/ml | Wirksamkeit (MHK in E/ml) (Prot. vulg. 9023): 8 - 16 E/ml

CC1(C)S[C@@H]2[C@H](NC(=O)[C@H](NC(=O)N3CCC(=O)N(C4CC4)C3=O)c3ccccc3)C(=O)N2[C@H]1C(=O)O [Beispiel 9]
Wirksamkeit (MHK in E/ml) (Serratia 16 001): 16 E/ml | Wirksamkeit (MHK in E/ml) (E. coli Neumann): 4 E/ml | ED50 (Escherichia coli Neumann): 300 mg/kg | Wirksamkeit (MHK in E/ml) (Klebs. 63): 8 - 16 E/ml

CC1(C)S[C@@H]2[C@H](NC(=O)[C@H](NC(=O)N3CCC(=O)N(C4CC4)C3=O)c3ccc(O)cc3)C(=O)N2[C@H]1C(=O)O [Beispiel 10]
Wirksamkeit (MHK in E/ml) (Psdm. F 41): 64 E/ml | Wirksamkeit (MHK in E/ml) (E. coli 4322): 16 E/ml

CC(=O)OCC1=C(C(=O)O)N2C(=O)[C@@H](NC(=O)[C@H](NC(=O)N3CCC(=O)N(C4CC4)C3=O)c3ccccc3)[C@H]2SC1 [Beispiel 11]
Wirksamkeit (MHK in E/ml) (E.coli 183/58): 16 E/ml
